Assay results as given in article PMC8491194, “A cyclic peptide retards the proliferation of DU145 prostate cancer cells in vitro and in vivo through inhibition of FGFR2” (MedComm, 2020).
Where a SMILES comes first, the peptide text is derived from it. Bridges are numbered along the chain shown (N, C = ends). Where no end group is shown, it is not given here. [ ]: non-standard residue; d: D form.

How the values were obtained:
L02 normal liver cells = assay: Toxicity toward L02 normal liver cells; type: cell-based, human; settings: in vitro
Procedure: (§1) The cell lines, including DU145 (human prostate cancer cells, American Type Culture Collection/ATCC, Manassas, VA), LNCaP (human prostate cancer cells, ATCC, Manassas, VA), KYSE30 (human esophageal squamous cell carcinoma cells, ATCC, Manassas, VA), KYSE510 (human esophageal squamous cell carcinoma cells, ATCC, US), L02 (human normal liver cells, ATCC, Manassas, VA), and MCF‐7 (human breast cancer cells, ATCC, Manassas, VA) were cultured in DMEM medium (Thermo Gibco, Waltham, MA) with 10% FBS (Biological Industries, Israel). The SGC7901 (human gastric cancer cells, ATCC, Manassas, VA) cells were maintained in RPMI‐1640 medium (Thermo Gibco, Waltham, MA) with 10% FBS. All these cell lines were cultured at 37°C in a 5% CO2 cell incubator (Bio‐Rad, Hercules, CA). Subculture of these cell lines was employed with 0.25% trypsin (Thermo Gibco, Waltham, MA).
(§2) Cell proliferation was evaluated using the Enhanced CCK‐8 cell proliferation and toxicity test kit (Meilunbio, China) according to the product specifications. Finally, the OD450 nm and OD630 nm were measured with an iMark dual wavelength microplate reader (Bio‐Rad, Hercules, CA), and the ratio of OD450 nm/OD630 nm was calculated.

[1] = Peptide concentration in peripheral blood after administration; type: in vivo, BALB/C‐nu/nu mice; settings: 25 mg/kg, serum; for time before blood concentration dropped below half C max: mice, biotin quantitation kit, sampled 0.5-24 hours postadministration
Procedure: DU145 cells with a density above 90% were harvested in to a microtube. The cell concentration was adjusted to 1 × 10^7 cells/mL, and two million cells were injected under the right arm of each individual. After injection, the tumors grew to a size of approximately 200 mm^3 in the following days. […] Animal models were randomly selected and assigned to each experimental group, and compounds were administered by intratumoral injections. The dosing regimen was one injection a day for 7 days. The length and width of the tumor were measured using a Vernier caliper once a day, and the animal's weight was recorded once a day from the beginning of the experiment. […] The tumor volume was calculated according to the formula V = ab ^2/2 (a refers to the length of the tumor, and b refers to the width).
Serum in the blood was separated and used to perform biotin quantitation with a Biotin Quantitation assay kit (MyBioSource, San Diego, CA) to calculate the concentration of the biotin‐peptide complex in the blood sample. Serum samples from the blank group were used as background controls, and serum of the 25 mg/kg‐dose P5 group and 25 mg/kg‐dose DcP5 group was examined in this step.

[2] = Body weight of tumor-bearing mice; type: in vivo, BALB/C‐nu/nu mice; settings: various dosing regimens; data not shown
Procedure: (§3) DU145 cells with a density above 90% were harvested in to a microtube. The cell concentration was adjusted to 1 × 10^7 cells/mL, and two million cells were injected under the right arm of each individual. After injection, the tumors grew to a size of approximately 200 mm^3 in the following days. […] Animal models were randomly selected and assigned to each experimental group, and compounds were administered by intratumoral injections. The dosing regimen was one injection a day for 7 days. The length and width of the tumor were measured using a Vernier caliper once a day, and the animal's weight was recorded once a day from the beginning of the experiment. On Day 14, blood samples of each animal were collected, the tumor tissue was separated and weighed, and internal organs were collected. The tumor volume was calculated according to the formula V = ab ^2/2 (a refers to the length of the tumor, and b refers to the width).

FGFR2 = FGFR2 (Homo sapiens, UniProt P21802); assay: Isothermal titration calorimetry (ITC) binding to FGFR2 protein; settings: in Figure 4A, read-out: KD, P5-FGFR2
Procedure: A set of peptide candidates was designed with manual inspection, synthesized with a chemical dehydration reaction, and verified with MS. To screen the candidates, an in vitro binding assay using isothermal titration calorimetry (ITC) was performed against the FGFR2 protein using AutoiTC200 (MicroCal, MA). After the positive candidate was confirmed by ITC, three analog peptides with different mutant amino acids were designed to verify the active site previously determined. The binding affinity of each mutant analog to FGFR2 was measured using ITC and compared with the positive candidate.
(§4) In our study, peptide cyclization was achieved by adding two cysteine residues to each end of the peptides. Cysteine is a chiral molecule. The natural cysteine is L‐cysteine, and a report has shown that introduction of unnatural D‐cysteine can theoretically improve the stability of the cyclic peptide in vivo.[41], [42], [43] Therefore, we designed and synthesized two cyclic peptides, DcP5 and LcP5, with two L‐cysteines or D‐cysteines at each end, respectively. The amino acid polymers of DcP5 and LcP5 were synthesized via the same organic chemistry as the P5 peptide. The cysteine‐ending peptides were spontaneously cyclized at 37°C in PBS (pH = 9.0) for 12 hours. […] Then, the binding affinity of these two cyclic peptides to FGFR2 was measured by ITC as described in Section 2.1. […]

[3] = system: heart, liver, spleen, lung, and kidney; assay: H&E staining of major organs of tumor-bearing mice; type: in vivo, BALB/C‐nu/nu mice; settings: tumor-bearing mice at functional doses, paraffin sections
Procedure: as §3
Briefly, the connective tissue around the parenchyma organ was removed and washed three times in PBS, and the tissues were fixed with 10% formalin solution for 24 hours, followed by gradient ethanol dehydration. The tissues were then subjected to paraffin embedding. Sections of 4 μm thickness were prepared for H&E staining. H&E staining was performed according to the standard protocol of the H&E staining kit (Solarbio, China).

DU145 cells [4] = assay: CCK-8 cell proliferation, DU145 cells; type: cell-based, human; settings: DU145, concentrations of 6.25 and 12.5 μM
Procedure: as §1
The cells were seeded at a density of 30 000 cells/mL based on cell counting performed with a cell counting plate. […]
as §2

FGFR2 on DU145 cells = assay: Immunofluorescence assay (IFA) of biotin-labeled peptide binding to DU145 cells; type: cell-based, human
Procedure: The binding affinity was analyzed under fluorescent microscope. GFP‐labeled DU145 cells were cultured to a density of 50%, followed by 4% paraformaldehyde fixation. After treated with 0.2% Triton X‐100, the cells were then blocked with 5% BSA. The incubation was performed by different treatments and SA‐PE‐TRITC was used as a fluorescent indicator; briefly, the FGFR2 mAb group (Abcam [Cambridge, MA] followed by PE‐TRITC‐labeled goat antimouse IgG for color development), and the blank group (equal amounts of PBS followed by SA‐PE‐TRITC as a fluorescent indicator were added). After adding the biotin‐labeled P5 peptide, biotin‐labeled P5‐3 peptide or anti‐FGFR2 mAb, the cells were incubated at 4°C overnight. After washing five times with PBST, the TRITC‐labeled streptavidin regent or TRITC‐labeled secondary antibody was introduced for another incubation at 25°C for 30 minutes in dark. Finally, the DAPI staining reagent was employed to stain the nucleus for 10 minutes in dark, followed by washing five times with PBS. After the addition of ProLong Antifade mounting medium (Thermo, Waltham, MA), a confocal microscope (OLS4100, Japan) was used for observation.

[5] = system: phosphorylated FGFR2, AKT, and ERK1/2; assay: Western blot of phosphorylated FGFR2, AKT and ERK1/2 in xenograft tumors; type: in vivo, BALB/C‐nu/nu mice; settings: tumor tissue of xenograft mice
Procedure: DU145 cells with a density above 90% were harvested in to a microtube. The cell concentration was adjusted to 1 × 10^7 cells/mL, and two million cells were injected under the right arm of each individual. […] Animal models were randomly selected and assigned to each experimental group, and compounds were administered by intratumoral injections. The dosing regimen was one injection a day for 7 days. The length and width of the tumor were measured using a Vernier caliper once a day, and the animal's weight was recorded once a day from the beginning of the experiment. On Day 14, blood samples of each animal were collected, the tumor tissue was separated and weighed, and internal organs were collected. The tumor volume was calculated according to the formula V = ab ^2/2 (a refers to the length of the tumor, and b refers to the width).
Cell lysates were subjected to SDS‐PAGE for Western blotting. Briefly, cells were lysed with RIPA buffer (Thermo, Waltham, MA), followed by heat denaturation in 1X Laemmli SDS buffer (Sigma, St Louis, MO). For SDS‐PAGE 100 μg proteins were loaded to each lane. After electrophoresis, the proteins were transferred onto PVDF membranes, followed by blocking in 5% nonfat milk. […] The bands were quantified using Image Lab Software 6.0 (Bio‐Rad, Hercules, CA).

DU145 cells [6] = assay: Colony formation of DU145 cells; type: cell-based, human; settings: 12.5 μM
Procedure: Cell colony formation was also employed to evaluate the effect of P5 and DcP5. The DU145 cells were seeded in six‐well plates (500 cells/well). The cultural supernatant was removed at 48 hours posttreatment, followed by washing with PBS three times. The cells were then fixed with 4% paraformaldehyde and air dried. Crystal violet staining was performed using solution (Sangon, China) as per the instructions. Then, photographs were taken, and spot amounts were calculated with an Invitrogen Countess II FL (Thermo, Waltham, MA) cell counter.
as §4

DU145 xenograft = DU145 xenograft in nude mice, tumor growth; type: in vivo, BALB/C‐nu/nu mice; settings: intratumoral injection once a day for 7 days, evaluated to Day 14, P5 10-25 mg/kg, DcP5 10, 25, 50 mg/kg, P5-3 50 mg/kg
Procedure: The specific pathogen‐free (SPF) level experimental male nude mice were purchased from the Animal Center of Guangdong Province (China), and the strain was BALB/C‐nu/nu. The animal experiments were conducted by the Animal Experimental Center of Jinan University (China) according to the National Institutes of Health guide for the care and use of Laboratory animals. The treatment and experimental procedure met the requirements of animal ethics.
as §3

[7] = system: FGFR2 knockdown DU145 cells; assay: Growth inhibition in FGFR2-knockdown (shFGFR2) DU145 cells; type: cell-based, human; settings: DU145, shFGFR2 knockdown vs wild type
Procedure: The cells were seeded at a density of 30 000 cells/mL based on cell counting performed with a cell counting plate. Different concentrations of the P5 peptide were added to the cultural medium, followed by a 24‐hour incubation at 37°C in a 5% CO2 cell incubator (Bio‐Rad, Hercules, CA). Five replicates were set up for each experimental group.
as §2
The shFGFR2 plasmid was purchased from Sigma (St Louis, MO) (TRCN0000218493). One microliter Lip3000 (Lipofectamine 3000, Invitrogen, Carlsbad, CA) was mixed with 100 ng plasmid in nonserum DMEM medium before being added into the cultural DU145 cells. The cells were incubated with the Lip3000/plasmid solution for 6 hours, followed by DMEM with 10% FBS incubation. The transfected cells were then ready for growth‐inhibition experiment and RNA extraction for qPCR.

Chain of FGFR2 (P21802 22-821): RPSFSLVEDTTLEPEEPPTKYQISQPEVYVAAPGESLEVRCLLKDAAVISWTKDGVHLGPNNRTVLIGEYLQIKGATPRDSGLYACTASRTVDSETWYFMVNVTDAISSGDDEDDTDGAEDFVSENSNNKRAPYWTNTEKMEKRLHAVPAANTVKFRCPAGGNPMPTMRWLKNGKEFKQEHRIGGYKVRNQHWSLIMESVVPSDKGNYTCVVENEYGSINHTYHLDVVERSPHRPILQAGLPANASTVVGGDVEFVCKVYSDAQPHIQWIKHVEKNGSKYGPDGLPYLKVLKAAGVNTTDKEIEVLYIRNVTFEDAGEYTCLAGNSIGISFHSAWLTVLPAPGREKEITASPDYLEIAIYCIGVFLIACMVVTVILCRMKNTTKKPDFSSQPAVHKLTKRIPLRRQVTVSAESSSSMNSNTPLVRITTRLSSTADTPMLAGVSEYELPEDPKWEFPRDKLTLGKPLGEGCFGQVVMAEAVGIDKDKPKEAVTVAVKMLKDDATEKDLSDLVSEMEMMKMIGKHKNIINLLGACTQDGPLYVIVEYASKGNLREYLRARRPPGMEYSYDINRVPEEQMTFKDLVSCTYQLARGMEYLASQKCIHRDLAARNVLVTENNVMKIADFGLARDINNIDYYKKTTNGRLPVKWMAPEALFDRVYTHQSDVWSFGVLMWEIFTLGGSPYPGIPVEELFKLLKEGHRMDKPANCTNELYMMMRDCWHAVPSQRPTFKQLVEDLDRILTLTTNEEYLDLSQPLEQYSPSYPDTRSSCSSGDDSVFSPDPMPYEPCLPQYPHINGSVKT

Row | Compound | toxicity toward normal cells (L02 normal liver cells) | time before blood concentration dropped below half C max [1] | body weight versus other groups incl. blank [2] | Kd (FGFR2) | toxicity toward heart, liver, spleen, lung, and kidney (H&E morphology) [3] | concentration in peripheral blood relative to P5 ([1]; 0.5 hour after administration, biotin quantitation kit (biotin-peptide)) | growth-inhibition rate relative to P5 (DU145 cells [4]) | fluorescent intensity of treated cells relative to P5 (FGFR2 on DU145 cells; IFA) | binding to FGFR2 on cells (IFA) (FGFR2 on DU145 cells; biotin-labeled peptide) | phosphorylation of FGFR2, AKT, and ERK1/2 [5] | colony number versus control group (DU145 cells [6]; 500 cells/well, crystal violet) | less colonies than cells exposed to P5 (DU145 cells [6]; P < .05) | tumor growth in xenograft (DU145 xenograft) | growth inhibitory effect in FGFR2 knockdown cells compared to wild type cells [7]
1 | LQLQAEER [P5] | negligible toxicity | 5 h | little difference in body weight | 490 nM | negligible toxicity | – | – | – | – | – | – | – | – | –
2 | CC(C)C[C@@H]1NC(=O)[C@H](N)CSSC[C@H](C(=O)O)NC(=O)[C@H](CCCNC(=N)N)NC(=O)[C@H](CCC(=O)O)NC(=O)[C@H](CCC(=O)O)NC(=O)[C@H](C)NC(=O)[C@H](CCC(N)=O)NC(=O)[C@H](CC(C)C)NC(=O)[C@H](CCC(N)=O)NC1=O [DcP5] (H-[dC]LQLQAEER[dC]-OH; disulfide 1-10; N-terminus and C-terminus assumed) | – | 7 h | little difference in body weight | – | remained normal | twice | stronger inhibition than P5 | significantly stronger | bind to FGFR2 | reduced | significantly less than the control group | 20% | significantly decreased the tumor size in dose‐dependent manner | significantly decreased
